Experimental data as given in paper PMC8705818, “Experimental Characterization of the Interaction between the N-Terminal SH3 Domain of Crkl and C3G” (International Journal of Molecular Sciences, 2021).
Peptide text beside a SMILES is read from it. * marks the point of attachment. Dansyl = CN(C)c1cccc2c(S(=O)(=O)*)cccc12

Experiments:
[1] = target: T1, N-SH3 domain of Crkl (WT) (Homo sapiens, UniProt P46109); assay: Stopped-flow displacement, N-SH3 WT:dansylated C3G277–296 complex versus nondansylated peptide; type: binding; conditions: 10 °C
T1 construct: The construct encoding the N-SH3 domain of Crkl was subcloned in a pET28b+ plasmid vector; His-tag; made in house; host or cells: E. coli BL21
Procedure: (§1) We rapidly mixed a constant concentration of C3G277–296 peptide (0.5 µM) versus increasing concentrations of N-SH3 (ranging from 0.5 to 5 µM) and the observed rate constants (kobs) obtained at different ionic strength conditions (buffer Hepes 50 mM, pH 7.0, 0.15 M, 0.3 M, 0.5 M and 1 M NaCl) were plotted as function of concentration of N-SH3 and fitted with a linear equation (Figure 1). By following previously derived equations [19, 20], the dependence of kobs as function of [N-SH3] was fitted with Equation (1), taking into account the non-pseudo-first order conditions, allowing us to calculate the microscopic association rate constant (kon), the microscopic dissociation rate constant (koff) of the binding reaction and the equilibrium dissociation rate constant KD, such as koff/kon. To increase the reliability of the calculated KD, we resorted to directly obtaining a koff value through displacement experiments (Table 1), in which a preincubated complex of N-SH3 domain and dansylated C3G277–296 peptide (at the concentration of 0.5 and 2 µM, respectively) were rapidly mixed versus a high excess of nondansylated peptide (ranging from 20 to 40 µM). In agreement with the theory in [21], the observed rate constants were insensitive to displacer concentration. In all binding and displacement experiments conducted, traces were satisfactorily fitted with a single-exponential equation. (1) kobs=(kon^2∗(2−[NSH3])^2+koff^2+2konkoff(2+[NSH3]))^1/2
Kinetic binding experiments were performed on a single-mixing SX-18 stopped-flow instrument (Applied Photophysics), by mixing a constant concentration (0.5 μM) of C3G dansylated versus increasing concentrations of N-SH3 at 10 °C. Ionic strength dependence of wt N-SH3 was performed with concentrations ranging from 1 to 5 µM for 0 M NaCl condition and from 0.5 to 5 µM for 0.15 M, 0.3 M, 0.5 M and 1 M NaCl, buffer Hepes 50 mM pH 7.0. The excitation wavelength was 280 nm, and fluorescence was collected using a 455 nm cut-off filter. At least, five independent acquisitions were collected and averaged for each experiment. The resulting averages were all satisfactorily fitted with a single-exponential equation. Buffers used for pH dependence were: 50 mM Sodium Acetate pH 5.0, 50 mM Sodium Acetate, pH 5.5, Bis–Tris 50 mM pH 6.0, Bis–Tris 50 mM pH 6.5, Hepes 50 mM pH 7.0, Hepes 50 mM pH 7.5, Tris–HCl 50 mM pH 8.0, Tris–HCl 50 mM pH 8.5, Tris–HCl 50 mM pH 9.0, all with added 0.5 M NaCl. Concentrations of N-SH3 used for each experiment were: 4.0–8.0 µM at pH 5.0, 2.0–7.0 µM at pH 5.5, 1.0–5.0 µM at pH 6.0, 0.5–5.0 µM at pH 6.5, 1.5–6.0 µM at pH 7.0, 0.5–5.0 µM at pH 7.5, 1.5–6.0 µM at pH 8.0, 1.5–6.0 µM pH 8.5, 1.5–6.0 µM at pH 9.0. For the ionic strength dependence of D138A and E140A variants buffer used were 0.05 M NaCl, 0.1 M NaCl, 0.15 M NaCl, in 50 mM Hepes pH 7.5. Concentrations of N-SH3 D138A used for each experiment were: 2.0–4.5 µM at 0 M NaCl, 2.5–6.0 µM at 0.05 M, 0.1 M, 0.15 M NaCl. Concentrations of N-SH3 E140A used for each experiment were: 2.0–4.5 µM at 0 M NaCl, 3.0–5.5 µM at 0.05 M NaCl, 3.0–5.0 µM at 0.1 M NaCl, 3.0–5.5 µM at 0.15 M NaCl. Displacement kinetic experiments were performed by mixing a preincubated complex of N-SH3 (in all its variants) and dansylated C3G versus a high excess of nondansylated C3G (see text for details). Experiments were performed in the same buffer conditions as the binding experiments, except for D141A variant, for which 20% w/v sucrose was added to the buffer Hepes 50 mM pH 7.0. Displacement traces were fitted with a single-exponential equation.

N-SH3 D138A (Crkl) [2] = target: T2, N-SH3 D138A (Crkl) (Homo sapiens, UniProt P46109, D138A); assay: Stopped-flow kinetic binding, N-SH3 D138A versus C3G277–296; conditions: pH 7.5, D138A, 50 mM Hepes pH 7.5, 10 °C
T2 construct: The construct encoding the N-SH3 domain of Crkl was subcloned in a pET28b+ plasmid vector; His-tag; made in house; host or cells: E. coli BL21
Procedure: as §1
(§2) Then, we employed D138A, E140A and D141A variants in kinetic binding experiments with C3G, and we explored the effect of increasing ionic strength on the binding reaction of these variants.
(§3) Kinetic binding experiments were performed on a single-mixing SX-18 stopped-flow instrument (Applied Photophysics), by mixing a constant concentration (0.5 μM) of C3G dansylated versus increasing concentrations of N-SH3 at 10 °C. Ionic strength dependence of wt N-SH3 was performed with concentrations ranging from 1 to 5 µM for 0 M NaCl condition and from 0.5 to 5 µM for 0.15 M, 0.3 M, 0.5 M and 1 M NaCl, buffer Hepes 50 mM pH 7.0. The excitation wavelength was 280 nm, and fluorescence was collected using a 455 nm cut-off filter. At least, five independent acquisitions were collected and averaged for each experiment. The resulting averages were all satisfactorily fitted with a single-exponential equation. Buffers used for pH dependence were: 50 mM Sodium Acetate pH 5.0, 50 mM Sodium Acetate, pH 5.5, Bis–Tris 50 mM pH 6.0, Bis–Tris 50 mM pH 6.5, Hepes 50 mM pH 7.0, Hepes 50 mM pH 7.5, Tris–HCl 50 mM pH 8.0, Tris–HCl 50 mM pH 8.5, Tris–HCl 50 mM pH 9.0, all with added 0.5 M NaCl. […]

N-SH3 D138A (Crkl) [3] = target: T2, N-SH3 D138A (Crkl); assay: Stopped-flow displacement, N-SH3 D138A:dansylated C3G277–296 complex; type: binding; conditions: pH 7.5, D138A, 50 mM Hepes pH 7.5, 10 °C
Procedure: as §1
as §3, with “NaCl. Concentrations of N-SH3 used for each experiment were: 4.0–8.0 µM at pH 5.0, 2.0–7.0 µM at pH 5.5, 1.0–5.0 µM at pH 6.0, 0.5–5.0 µM at pH 6.5, 1.5–6.0 µM at pH 7.0, 0.5–5.0 µM at pH 7.5, 1.5–6.0 µM at pH 8.0, 1.5–6.0 µM pH 8.5, 1.5–6.0 µM at pH 9.0.” for “NaCl.”

N-SH3 E140A (Crkl) [4] = target: T3, N-SH3 E140A (Crkl) (Homo sapiens, UniProt P46109, E140A); assay: Stopped-flow kinetic binding, N-SH3 E140A versus C3G277–296; conditions: pH 7.5, E140A, 50 mM Hepes pH 7.5, 10 °C
T3 construct: The construct encoding the N-SH3 domain of Crkl was subcloned in a pET28b+ plasmid vector; His-tag; made in house; host or cells: E. coli BL21
Procedure: as §1, §2, §3

N-SH3 E140A (Crkl) [5] = target: T3, N-SH3 E140A (Crkl); assay: Stopped-flow displacement, N-SH3 E140A:dansylated C3G277–296 complex; type: binding; conditions: pH 7.5, E140A, 50 mM Hepes pH 7.5, 10 °C
Procedure: as §1
as §3, with “NaCl. Concentrations of N-SH3 used for each experiment were: 4.0–8.0 µM at pH 5.0, 2.0–7.0 µM at pH 5.5, 1.0–5.0 µM at pH 6.0, 0.5–5.0 µM at pH 6.5, 1.5–6.0 µM at pH 7.0, 0.5–5.0 µM at pH 7.5, 1.5–6.0 µM at pH 8.0, 1.5–6.0 µM pH 8.5, 1.5–6.0 µM at pH 9.0.” for “NaCl.”

T3 sequence (P46109 123-183 E140A limits assumed): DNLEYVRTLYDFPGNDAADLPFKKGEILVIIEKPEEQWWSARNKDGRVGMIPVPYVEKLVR
T2 sequence (P46109 123-183 D138A limits assumed): as the sequence (P46109 123-183 E140A limits assumed) above, with D16A, A18E counted along it
T1 sequence (P46109 123-183 limits assumed): as the sequence (P46109 123-183 E140A limits assumed) above, with A18E counted along it

koff ([1]; pH 5, pH 5.0 (50 mM Sodium Acetate), 0.5 M NaCl, displacement): 257 ± 10 s⁻¹
koff ([1]; pH 5.5, pH 5.5 (50 mM Sodium Acetate), 0.5 M NaCl, displacement): 81 ± 3 s⁻¹
koff ([1]; pH 6, pH 6.0 (Bis–Tris 50 mM), 0.5 M NaCl, displacement): 78 ± 3 s⁻¹
koff ([1]; pH 6.5, pH 6.5 (Bis–Tris 50 mM), 0.5 M NaCl, displacement): 65 ± 2 s⁻¹
koff ([1]; pH 7, 0 M NaCl, Hepes 50 mM pH 7.0, displacement by 20–40 µM nondansylated peptide): 12 ± 1 s⁻¹
koff ([1]; pH 7, 0.15 M NaCl, Hepes 50 mM pH 7.0, displacement): 23 ± 1 s⁻¹
koff ([1]; pH 7, 0.3 M NaCl, Hepes 50 mM pH 7.0, displacement): 32 ± 2 s⁻¹
koff ([1]; pH 7, 0.5 M NaCl (ionic strength series), Hepes 50 mM pH 7.0, displacement): 34 ± 1 s⁻¹
koff ([1]; pH 7, 1.0 M NaCl, Hepes 50 mM pH 7.0, displacement): 51 ± 2 s⁻¹
koff ([1]; pH 7, pH 7.0 (Hepes 50 mM), 0.5 M NaCl (pH series), displacement): 42 ± 2 s⁻¹
koff ([1]; pH 7.5, pH 7.5 (Hepes 50 mM), 0.5 M NaCl, displacement): 34 ± 2 s⁻¹
koff ([1]; pH 8, pH 8.0 (Tris–HCl 50 mM), 0.5 M NaCl, displacement): 46 ± 3 s⁻¹
koff ([1]; pH 8.5, pH 8.5 (Tris–HCl 50 mM), 0.5 M NaCl, displacement): 40 ± 3 s⁻¹
koff ([1]; pH 9, pH 9.0 (Tris–HCl 50 mM), 0.5 M NaCl, displacement): 39 ± 2 s⁻¹
kon (N-SH3 D138A (Crkl) [2]; 0 M NaCl, 0.5 µM dansylated peptide vs 2.0–4.5 µM N-SH3 D138A): 1.58e+08 ± 1.2e+07 M⁻¹ s⁻¹
kon (N-SH3 D138A (Crkl) [2]; 0.05 M NaCl, 0.5 µM dansylated peptide vs 2.5–6.0 µM N-SH3 D138A): 8.1e+07 ± 8e+06 M⁻¹ s⁻¹
kon (N-SH3 D138A (Crkl) [2]; 0.10 M NaCl, 0.5 µM dansylated peptide vs 2.5–6.0 µM N-SH3 D138A): 4.8e+07 ± 8e+06 M⁻¹ s⁻¹
kon (N-SH3 D138A (Crkl) [2]; 0.15 M NaCl, 0.5 µM dansylated peptide vs 2.5–6.0 µM N-SH3 D138A): 1.2e+07 ± 5e+06 M⁻¹ s⁻¹
koff (N-SH3 D138A (Crkl) [3]; 0 M NaCl): 139 ± 1 s⁻¹
koff (N-SH3 D138A (Crkl) [3]; 0.05 M NaCl): 212 ± 2 s⁻¹
koff (N-SH3 D138A (Crkl) [3]; 0.10 M NaCl): 183 ± 2 s⁻¹
koff (N-SH3 D138A (Crkl) [3]; 0.15 M NaCl): 254 ± 2 s⁻¹
kon (N-SH3 E140A (Crkl) [4]; 0 M NaCl, 0.5 µM dansylated peptide vs 2.0–4.5 µM N-SH3 E140A): 7.8e+07 ± 6e+06 M⁻¹ s⁻¹
kon (N-SH3 E140A (Crkl) [4]; 0.05 M NaCl, 0.5 µM dansylated peptide vs 3.0–5.5 µM N-SH3 E140A): 8.9e+07 ± 8e+06 M⁻¹ s⁻¹
kon (N-SH3 E140A (Crkl) [4]; 0.10 M NaCl, 0.5 µM dansylated peptide vs 3.0–5.0 µM N-SH3 E140A): 7.7e+07 ± 8e+06 M⁻¹ s⁻¹
kon (N-SH3 E140A (Crkl) [4]; 0.15 M NaCl, 0.5 µM dansylated peptide vs 3.0–5.5 µM N-SH3 E140A): 8.1e+07 ± 8e+06 M⁻¹ s⁻¹
koff (N-SH3 E140A (Crkl) [5]; 0 M NaCl): 254 ± 3 s⁻¹
koff (N-SH3 E140A (Crkl) [5]; 0.05 M NaCl): 330 ± 3 s⁻¹
koff (N-SH3 E140A (Crkl) [5]; 0.10 M NaCl): 302 ± 2 s⁻¹
koff (N-SH3 E140A (Crkl) [5]; 0.15 M NaCl): 339 ± 2 s⁻¹
SMILES: CC(C)C[C@H](NC(=O)[C@H](C)NC(=O)[C@@H]1CCCN1C(=O)[C@@H]1CCCN1C(=O)[C@@H]1CCCN1C(=O)[C@H](CO)NC(=O)[C@H](CC(N)=O)NC(=O)[C@H](CC(=O)O)NC(=O)[C@@H](NC(=O)[C@@H](NS(=O)(=O)c1cccc2c(N(C)C)cccc12)C(C)C)C(C)C)C(=O)N1CCC[C@H]1C(=O)N1CCC[C@H]1C(=O)N[C@@H](CCCCN)C(=O)N[C@@H](CCCCN)C(=O)N[C@@H](CCCNC(=N)N)C(=O)N[C@@H](CCC(N)=O)C(=O)N[C@@H](CO)C(=O)N[C@@H](C)C(=O)N1CCC[C@H]1C(=O)N[C@@H](CO)C(=O)O [C3G277–296] (Dansyl-VVDNSPPPALPPKKRQSAPS-OH)
